Measurements from patent publication US9963462B2 (priority 2015, dated 2018).

How the values were obtained:
[1] = molecular target: SNAP-hSPR (sepiapterin reductase, SPR) (Homo sapiens, UniProt P35270); test: biochemical; assay type: binding; settings: terbium labelled SNAP-hSPR / SSZ labelled SNAP-EGFP; read-out: hTR-FRET IC50
[2] = tested on: BH4 levels in SK-N-BE (2) cells; test: SKN-N-BE (2) cellular assay, BH4 levels by LC-MS; assay type: cell-based; settings: Homo sapiens, SKNBE2, read-out: SK-N-BE(2) IC50, SK-N-BE (2) cells, BH4 levels by LC-MS

SNAP-hSPR (sepiapterin reductase, SPR), sequence (P35270 whole entry): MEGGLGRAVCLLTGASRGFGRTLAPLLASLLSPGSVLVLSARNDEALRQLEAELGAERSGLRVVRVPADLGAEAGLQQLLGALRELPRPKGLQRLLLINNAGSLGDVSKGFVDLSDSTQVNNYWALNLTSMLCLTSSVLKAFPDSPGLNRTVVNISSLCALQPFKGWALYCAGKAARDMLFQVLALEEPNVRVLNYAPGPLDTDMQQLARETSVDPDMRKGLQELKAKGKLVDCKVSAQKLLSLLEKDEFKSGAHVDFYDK

| Compound | IC50 [1] [nM] | IC50 [2] [nM] |
| --- | --- | --- |
| Cc1c(C(=O)N2c3ccccc3C[C@@H]2C)cnn1-c1nc2ccsc2c(=O)[nH]1 (single isomer, unassigned) [Q-0415] | 30 | 1200 |
| N#CC1(c2ccccc2)CCN(C(=O)c2cnn(-c3nc4c(c(=O)[nH]3)CCC4)c2)CC1 [Q-0726] | 1 | 74 |
| CCOC(=O)c1nnn(-c2nn3cccc3c(=O)[nH]2)c1C [Q-0780] | 1 | 200 |
| O=C(O)c1ccnc(-c2nc3sccc3c(=O)[nH]2)c1 [Q-0566] | 5000 | 10000 |
| Cc1cc(=O)[nH]c(-n2ncc(C(=O)N3c4ccccc4C[C@H]3C)c2C)n1 (single isomer, unassigned) [Q-0361] | 10 | 600 |
| Cc1cc(=O)[nH]c(-n2ncc(C(=O)N3CCc4ccccc4C3)c2CC(C)C)n1 [Q-0353] | 50 | 15000 |
| Cc1c(C(=O)N2CCCC2(C)C)cnn1-c1nc2ccsc2c(=O)[nH]1 [Q-0397] | 20 | 2300 |
| CCN1CCN(C(=O)c2cnn(-c3nc(C)c(C)c(=O)[nH]3)c2C)CC1 [Q-0282] | 30 | 4400 |
| O=C(c1cnn(-c2nn3cccc3c(=O)[nH]2)c1)N1CCN(c2ccc(F)cc2F)CC1 [Q-0734] | 4 | 300 |
| Cc1c(C(=O)N2CCC(C)(C)C2)cnn1-c1nc2ccsc2c(=O)[nH]1 [Q-0380] | 7 | 2700 |
| Cc1c(C(=O)N2CCC3(CCCC3)CC2)cnn1-c1nc2ccsc2c(=O)[nH]1 [Q-0398] | 10 | 72 |
| Cc1c(C(=O)N2CCN3CCC[C@@H]3C2)cnn1-c1nc2c(c(=O)[nH]1)CCC2 [Q-0575] | 3 | 200 |
| Cc1c(C(=O)N2CCN(C(=O)C34CC(C(=O)O)(C3)C4)CC2)cnn1-c1nc2c(c(=O)[nH]1)CCC2 [Q-0627, 3-(4-(5-methyl-1-(4-oxo-4,5,6,7-tetrahydro-3H-cyclopenta[d]pyrimidin-2-yl)-1H-pyrazole-4-carbonyl)piperazine-1-carbonyl)bicyclo[1.1.1]pentane-1-carboxylic acid] | 9 | 10000 |
| Cc1c(C(=O)N2CC[C@@H](N(C)C(=O)OC(C)(C)C)C2)cnn1-c1nn2cccc2c(=O)[nH]1 [Q-0736] | 2 | 200 |
| CC1(C)CCN(C(=O)c2ccn(-c3nc4ccsc4c(=O)[nH]3)n2)C1 [Q-0389] | 20 | 5600 |
| Cc1c(C(=O)N2CCC(Oc3ccccc3)C2)cnn1-c1nc2c(c(=O)[nH]1)CCC2 (stereo not shown) [Q-0477] | 5 | 91 |
| Cc1c(C(=O)N2CCC(c3nc4ccc(F)cc4s3)CC2)cnn1-c1nc2c(c(=O)[nH]1)CCC2 [Q-0590] | 3 | 15 |
| O=C(c1cnn(-c2nc3c(c(=O)[nH]2)CCC3)c1)N1CCC(c2c[nH]c3ccccc23)CC1 [Q-0702] | 2 | 32 |
| Cc1c(C(=O)N2CCC(C(C#N)C3CC3)CC2)cnn1-c1nn2cccc2c(=O)[nH]1 (stereo not shown) [Q-0855] | 1 | 100 |
| Cc1cc(=O)[nH]c(-n2ncc(C(=O)N3C4CCC3CC4)c2C)n1 [Q-0329] | 10 | 3500 |
| N#CC1(c2ccccc2)CCN(C(=O)c2cnn(-c3nn4cccc4c(=O)[nH]3)c2)CC1 [Q-0534] | 3 | 100 |
| Cc1c(C(=O)N2CCC(C3CC3)CC2)cnn1-c1nc2ccsc2c(=O)[nH]1 [Q-0698] | 1 | 71 |
| Cc1c(C(=O)N2CC(CN)C2)cnn1-c1nc2c(c(=O)[nH]1)CCC2 [Q-0589] | 60 | 1700 |
| Cc1cc(=O)[nH]c(-n2ncc(C(=O)NC3CCc4ccccc43)c2C)n1 (stereo not shown) [Q-0363] | 30 | 5800 |

| Compound | IC50 [1] [nM] | IC50 [2] [nM] |
| --- | --- | --- |
| CCC(C#N)C1CCN(C(=O)c2cnn(-c3nn4cccc4c(=O)[nH]3)c2C)CC1 (stereo not shown) [Q-0826] | 1 | 100 |
| CCCN(CC)C(=O)c1cnn(-c2nc(C)cc(=O)[nH]2)c1C [Q-0347] | 10 | 7500 |
| Cc1cc(=O)[nH]c(-n2ncc(C(=O)N3CCN(c4ccccn4)CC3)c2C)n1 [Q-0299] | 5 | 1200 |
| Cc1c(C(=O)N2CC2c2ccccc2)cnn1-c1nc2c(c(=O)[nH]1)CCC2 (stereo not shown) [Q-0596] | 4 | 16 |
| Cc1c(C(=O)N2CC3COCC(C3)C2)cnn1-c1nc2ccsc2c(=O)[nH]1 [Q-0602] | 20 | 1200 |
| Cc1c(C(=O)N2CCC(CC(F)(F)F)CC2)cnn1-c1nc2c(c(=O)[nH]1)CCC2 [Q-0476] | 3 | 56 |
| O=C(c1cnn(-c2nn3c(F)ccc3c(=O)[nH]2)c1C1CC1)N1CCC(C(F)(F)F)CC1 [Q-0620] | 1 | 100 |
| O=C(c1cnc(-c2nc3ccsc3c(=O)[nH]2)s1)N1CCC(C(F)(F)F)CC1 [Q-0530] | 30 | 1800 |
| CN[C@@H]1CCN(C(=O)c2cnn(-c3nc4ccsc4c(=O)[nH]3)c2C)C1 [Q-0584] | 200 | 10000 |
| COC1(c2ccccc2)CCN(C(=O)c2cnn(-c3nc4c(c(=O)[nH]3)CCC4)c2C)CC1 [Q-0514] | 7 | 57 |
| Cc1c(C(=O)N2CCC(C(F)(F)F)CC2)cnn1-c1nc2sccc2c(=O)[nH]1 [Q-0410] | 2 | 200 |
| Cc1c(C(=O)N2CCN(C(=O)OC(C)(C)C)C3(CCC3)C2)cnn1-c1nn2cccc2c(=O)[nH]1 [Q-0820] | 1 | 40 |
| Cc1c(C(=O)N2CCN(c3ccc(Cl)cc3)CC2)cnn1-c1nn2cccc2c(=O)[nH]1 [Q-0827] | 2 | 65 |
| Cc1cc(=O)[nH]c(-n2ncc(C(=O)N3CCC(C(F)(F)F)CC3)c2C(C)C)n1 [Q-0444] | 10 | 2700 |
| CC(C)(C#N)C1CCN(C(=O)c2cnn(-c3nn4cccc4c(=O)[nH]3)c2)CC1 [Q-0720] | 1 | 300 |
| Cc1c(C(=O)N2CCC(c3c[nH]c4ccccc34)CC2)cnn1-c1nn2c(F)ccc2c(=O)[nH]1 [Q-0624] | 2 | 32 |
| Cc1c(C(=O)N2CCc3ccccc3C2)cnn1-c1nc2c(c(=O)[nH]1)CCC2 [Q-0396] | 2 | 61 |
| Cc1c(C(=O)N2CC(c3ccc(F)c(F)c3)C2)cnn1-c1nn2cccc2c(=O)[nH]1 [Q-0771] | 1 | 200 |
| Cc1c(C(=O)N2CCC(C(C)(O)C(F)(F)F)CC2)cnn1-c1nc2c(c(=O)[nH]1)CCC2 (stereo not shown) [Q-0449] | 3 | 78 |
| Cc1c(C(=O)N2CC(N3CCC(F)(F)CC3)C2)cnn1-c1nn2cccc2c(=O)[nH]1 [Q-0818] | 2 | 900 |
| Cc1cc(=O)[nH]c(-n2ncc(C(=O)N3CCOCC3)c2C)n1 [Q-0352] | 20 | 13000 |
| Cc1nc(-n2ncc(C(=O)N3CCc4ccccc4C3)c2C)[nH]c(=O)c1C [Q-0381] | 10 | 2100 |
| Cc1c(C(=O)N2CCN(c3ccc(C(F)(F)F)cc3)CC2)cnn1-c1nn2cccc2c(=O)[nH]1 [Q-0833] | 6 | 200 |
